Data reported in patent US12544375B2, “Small molecule therapeutic for parkinson's disease paired with a biomarker of therapeutic activity” (The Board of Trustees of the Leland Stanford Junior …, priority 2019, dated 2026).

Experiments:
Miro1 [1] = target: T1, Miro1 (Homo sapiens, UniProt Q8IXI2); assay: Ubiquitination of immunoprecipitated Miro1 after CCCP 1 hr; assay type: cell-based; details: PD-2 fibroblasts, with or without Miro1 Reducer
T1 construct: We applied compound 3 to fibroblasts from one sporadic PD patient (PD-2); endogenous in cells; host or cells: human skin fibroblasts (PD-2, Healthy-1 and further PD/control lines)
T1 sequence (Q8IXI2 whole entry): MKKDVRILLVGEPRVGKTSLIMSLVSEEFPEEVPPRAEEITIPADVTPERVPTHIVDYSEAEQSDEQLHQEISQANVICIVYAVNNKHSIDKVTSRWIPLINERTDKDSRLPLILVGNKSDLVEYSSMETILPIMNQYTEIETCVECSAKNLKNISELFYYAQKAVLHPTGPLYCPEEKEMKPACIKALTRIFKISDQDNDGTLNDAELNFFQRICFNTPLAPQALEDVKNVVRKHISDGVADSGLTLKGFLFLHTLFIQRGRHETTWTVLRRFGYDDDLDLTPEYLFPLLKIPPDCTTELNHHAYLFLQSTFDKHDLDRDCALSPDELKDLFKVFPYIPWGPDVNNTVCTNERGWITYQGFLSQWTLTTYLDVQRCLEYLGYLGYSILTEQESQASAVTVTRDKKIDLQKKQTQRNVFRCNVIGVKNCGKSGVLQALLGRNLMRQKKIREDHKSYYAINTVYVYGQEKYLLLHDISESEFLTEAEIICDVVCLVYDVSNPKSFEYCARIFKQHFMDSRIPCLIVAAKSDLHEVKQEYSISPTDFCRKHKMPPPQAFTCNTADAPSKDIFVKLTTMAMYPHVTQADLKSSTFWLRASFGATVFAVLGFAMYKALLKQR
Protocol: (§1) FIG. 8. Related to FIG. 2-4. Miro1 Reducer in Human Cell and Fly Models. (A) Fibroblasts from Healthy-1 and PD-2 were treated, lysed, and blotted as indicated. Band intensities are normalized to those of GAPDH from the same blots and compared to “Healthy-1, no treatment”. n=4 independent experiments. (B) Fibroblasts from PD-2 were treated and immunostained as indicated. The intensity was quantified for each cell across 264-320 cells from 3 independent experiments, compared to “no treatment”. (C) Fibroblasts were treated, immunoprecipitated (IPed) with anti-Miro1, and blotted as indicated. Similar results were observed twice. (D) Similar as in (C), fibroblasts were treated as indicated, and IPed with anti-Miro1. The GTPase activity of the IPed Miro1 protein was measured as described in Method. […] The MitoSox intensity was quantified for each cell across 106-161 cells from 3 coverslips. […] The TMRM intensity was measured for each cell across 48-60 cells from 3 independent experiments, and expressed as a fraction of the mean of “Healthy-1, no treatment”. […] The movement (the intensity of non-yellow) was quantified for each cell as described in (Tsai et al., 2014) across 22-31 cells from 3 transfections. […] (1) Left: The percentage of TH-positive iPSC-derived neurons out of total cells (Dapi-positive) is calculated after immunocytochemistry under 20× as described in FIG. 3. […]

Miro1 [2] = target: T1, Miro1; assay: GTPase activity of Miro1 IPed from fibroblasts; assay type: biochemical; details: PD-2 fibroblasts, basal or depolarized condition
Protocol: as §1

SMILES: O=C(Nc1ccc(Nc2cc(-n3ccnc3)ncn2)cc1)Nc1cccc(F)c1 [Miro1 Reducer]
- depolarization-elicited increase of ubiquitination of IPed Miro1 (Miro1 [1]): did not occur
- GTPase activity of IPed Miro1 (Miro1 [2]): did not affect
